pIC50: −log10 of the molar value. ≈ marks a conversion by molar mass, not a printed value.
Legend:
[1] = target: T1, Dipeptidase 1 (Sus scrofa) (UniProt P22412); experiment: (§1) Susceptibility to DHP-I (swine kidney enzyme); type: tissue-based
T1 sequence (whole entry): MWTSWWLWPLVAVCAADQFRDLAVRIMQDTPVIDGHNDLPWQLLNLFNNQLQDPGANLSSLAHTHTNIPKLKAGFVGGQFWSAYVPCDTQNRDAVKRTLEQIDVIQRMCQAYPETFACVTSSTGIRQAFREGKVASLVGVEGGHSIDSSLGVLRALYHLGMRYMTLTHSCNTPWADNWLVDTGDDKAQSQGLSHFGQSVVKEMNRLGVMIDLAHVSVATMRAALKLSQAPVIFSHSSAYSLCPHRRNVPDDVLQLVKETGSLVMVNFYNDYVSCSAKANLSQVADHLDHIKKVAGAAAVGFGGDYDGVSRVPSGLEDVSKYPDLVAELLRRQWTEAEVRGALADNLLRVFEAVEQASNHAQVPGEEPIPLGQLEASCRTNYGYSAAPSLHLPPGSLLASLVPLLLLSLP

Staphylococcus aureus [2] = experiment: Inhibitory activity against methicillin-resistant staphylococcus aureus(MRSA); type: functional
Staphylococcus aureus [3] = experiment: Inhibitory activity against methicillin-sensitive staphylococcus aureus(MSSA); type: functional
Bacteria [4] = experiment: The gram-negative activity is derived from eleven strains selected from seven enteric genera; type: functional
MecA = target: T2, MecA (Staphylococcus aureus, UniProt Q7DHH4); experiment: Binding affinity towards Penicillin-binding protein 2a from homogeneous MRSA COL strain using [3H]-radioligand
T2 sequence (Q7DHH4 whole entry): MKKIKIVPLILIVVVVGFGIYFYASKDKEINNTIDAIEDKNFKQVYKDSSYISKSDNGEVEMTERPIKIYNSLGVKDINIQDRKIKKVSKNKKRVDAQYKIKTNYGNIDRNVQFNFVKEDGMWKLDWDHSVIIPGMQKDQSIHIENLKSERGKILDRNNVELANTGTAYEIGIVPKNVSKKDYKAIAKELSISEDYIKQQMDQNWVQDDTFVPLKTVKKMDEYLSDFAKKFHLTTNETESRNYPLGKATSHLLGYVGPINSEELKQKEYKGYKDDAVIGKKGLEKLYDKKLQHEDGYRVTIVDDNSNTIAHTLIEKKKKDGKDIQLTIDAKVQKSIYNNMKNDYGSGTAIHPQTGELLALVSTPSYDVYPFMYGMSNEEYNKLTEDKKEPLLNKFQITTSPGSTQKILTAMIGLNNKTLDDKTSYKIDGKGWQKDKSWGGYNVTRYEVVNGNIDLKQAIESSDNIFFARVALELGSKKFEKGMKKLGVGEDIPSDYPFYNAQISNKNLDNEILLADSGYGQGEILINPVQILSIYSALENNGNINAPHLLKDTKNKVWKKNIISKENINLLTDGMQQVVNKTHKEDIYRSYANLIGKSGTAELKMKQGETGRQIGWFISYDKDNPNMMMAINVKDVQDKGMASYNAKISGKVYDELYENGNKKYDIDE

Enterococcus [5] = experiment: Inhibitory activity against enterococcus evaluated by computational method; type: functional
Sus scrofa = species: Sus scrofa; experiment: as §1; type: tissue-based
Staphylococcus aureus [6] = experiment: Inhibitory activity against methicillin-sensitive staphylococcus aureus(MSSA) evaluated by computational method; type: functional
Enterococcus [7] = experiment: Inhibitory activity against enterococcus evaluated manually; type: functional
Bacteria [8] = experiment: Inhibitory activity against gram negative bacteria evaluated manually; type: functional
Staphylococcus sp. = experiment: (§2) Inhibitory activity against methicillin-resistant coagulase negative staphylococci (MRCNS) evaluated manually; type: functional
Staphylococcus aureus [9] = experiment: Inhibitory activity against methicillin-resistant staphylococcus aureus(MRSA) evaluated manually; type: functional
Staphylococcus aureus [10] = experiment: Inhibitory activity against methicillin-resistant staphylococcus aureus(MRSA) evaluated by computational method; type: functional
Staphylococcus aureus [11] = experiment: Inhibitory activity against methicillin-sensitive staphylococcus aureus(MSSA) evaluated manually; type: functional
Staphylococcus [12] = experiment: Inhibitory activity against methicillin-resistant coagulase negative staphylococci (MRCNS) evaluated by computational method; type: functional
Staphylococcus [13] = experiment: as §2; type: functional
Staphylococcus [14] = experiment: Inhibitory activity against methicillin-resistant coagulase negative staphylococci (MRCNS)evaluated manually; type: functional
Staphylococcus aureus [15] = experiment: Inhibitory activity against methicillin-resistant staphylococcus aureus(MRSA)evaluated manually; type: functional
Staphylococcus [16] = experiment: Inhibitory activity against methicillin-resistant coagulase negative staphylococci (MRCNS)evaluated by computational method; type: functional
Staphylococcus aureus [17] = experiment: Inhibitory activity against methicillin-resistant staphylococcus aureus(MRSA)evaluated by computational method; type: functional

| Compound | Susceptibility [1] | MIC (Staphylococcus aureus [2]) | MIC (Staphylococcus aureus [3]) | MIC (Bacteria [4]; Bacteria, read-out: MIC) | pIC50 (MecA) | MIC (Enterococcus [5]) | further results |
| --- | --- | --- | --- | --- | --- | --- | --- |
| CCOc1ccc2nc(SC3=C(C(=O)[O-])N4C(=O)[C@H]([C@@H](C)O)[C@H]4[C@H]3C)sc2c1.[Na+] | 0.3 | 4 µg/mL | 0.1 µg/mL | 31.6 µg/mL | 4.97 | 6 µg/mL |  |
| C[C@@H](O)[C@H]1C(=O)N2C(C(=O)[O-])=C(Sc3ncc(-c4ccccc4)s3)[C@H](C)[C@H]12.[Na+] | 0.5 | 32 µg/mL | 0.03 µg/mL | 16 µg/mL | 3.63 | 8 µg/mL |  |
| C[C@@H](O)[C@H]1C(=O)N2C(C(=O)[O-])=C(Sc3nc4cc(CO)ccc4s3)[C@H](C)[C@H]12.[Na+] | 0.3 | 1 µg/mL | 0.07 µg/mL | 8 µg/mL | 5.55 | 3.8 µg/mL |  |
| C[C@@H](O)[C@H]1C(=O)N2C(C(=O)[O-])=C(Sc3nc4cc(C[n+]5ccn(C)c5)ccc4s3)C[C@H]12 |  |  |  | 3.4 µg/mL (≈ 7.45 µM) | 6.06 | 1.2 µg/mL (≈ 2.63 µM) | Susceptibility (Sus scrofa): 0.2; MIC (Staphylococcus aureus [6]): 0.03 µg/mL (≈ 0.0657 µM); MIC (Enterococcus [7]): 1 µg/mL (≈ 2.19 µM); MIC (Bacteria [8]): 5.2 µg/mL (≈ 11.4 µM); MIC (Staphylococcus sp.): 4 µg/mL (≈ 8.76 µM); MIC (Staphylococcus aureus [9]): 2 µg/mL (≈ 4.38 µM); MIC (Staphylococcus aureus [10]): 1 µg/mL (≈ 2.19 µM); MIC (Staphylococcus aureus [11]): 0.02 µg/mL (≈ 0.0438 µM); MIC (Staphylococcus [12]): 0.8 µg/mL (≈ 1.75 µM) |
| C[C@@H](O)[C@H]1C(=O)N2C(C(=O)[O-])=C(Sc3nc4c(CO)csc4s3)[C@H](C)[C@H]12.[Na+] | 0.5 | 2 µg/mL | 0.02 µg/mL | 9.7 µg/mL | 5.56 | 4 µg/mL |  |
| C[C@@H](O)[C@H]1C(=O)N2C(C(=O)[O-])=C(Sc3nccs3)[C@H](C)[C@H]12.[Na+] | 0.4 | 18.2 µg/mL | 0.17 µg/mL | 2.5 µg/mL | 4.47 | 7.1 µg/mL |  |
| C[C@@H](O)[C@H]1C(=O)N2C(C(=O)O)=C(SCCNC=N)C[C@H]12 [IMIPENEM ANHYDROUS] |  |  |  | 0.6 µg/mL (≈ 2 µM) |  | 1.1 µg/mL (≈ 3.67 µM) | Susceptibility (Sus scrofa): 1; MIC (Staphylococcus aureus [6]): 0.02 µg/mL (≈ 0.0668 µM); MIC (Enterococcus [7]): 1.3 µg/mL (≈ 4.34 µM); MIC (Bacteria [8]): 0.4 µg/mL (≈ 1.34 µM); MIC (Staphylococcus [13]): > 64 µg/mL; MIC (Staphylococcus aureus [9]): 64 µg/mL (≈ 214 µM); MIC (Staphylococcus aureus [10]): 35.9 µg/mL (≈ 120 µM); MIC (Staphylococcus aureus [11]): 0.02 µg/mL (≈ 0.0668 µM); MIC (Staphylococcus [12]): 63.7 µg/mL (≈ 213 µM) |
| COC(=O)c1cc2sc(SC3=C(C(=O)[O-])N4C(=O)[C@H]([C@@H](C)O)[C@H]4[C@H]3C)nc2o1.[Na+] |  | 4 µg/mL | 0.02 µg/mL | 12.4 µg/mL | 5.47 | 4 µg/mL |  |
| COC(=O)c1csc2sc(SC3=C(C(=O)[O-])N4C(=O)[C@H]([C@@H](C)O)[C@H]4[C@H]3C)nc12.[Na+] | 0.3 | 2 µg/mL | 0.04 µg/mL | 21.9 µg/mL | 5.59 | 4 µg/mL |  |
| C[C@@H](O)[C@H]1C(=O)N2C(C(=O)[O-])=C(Sc3nc(-c4ccccc4)cs3)C[C@H]12.[Na+] | 3.6 | 11.3 µg/mL | 0.03 µg/mL | 14 µg/mL |  | 2.1 µg/mL |  |
| C[C@@H](O)[C@H]1C(=O)N2C(C(=O)[O-])=C(Sc3nc4ccc(C#N)cc4s3)[C@H](C)[C@H]12.[Na+] | 0.1 | 0.9 µg/mL | 0.04 µg/mL | 8.8 µg/mL | 5.42 | 4.5 µg/mL |  |
| C[C@@H](O)[C@H]1C(=O)N2C(C(=O)[O-])=C(Sc3nc(-c4ccccc4)cs3)[C@H](C)[C@H]12.[Na+] | 0.4 | 1.9 µg/mL | 0.05 µg/mL | 6.6 µg/mL | 4.62 | 2.6 µg/mL |  |
| C[C@@H](O)[C@H]1C(=O)N2C(C(=O)[O-])=C(Sc3nc4cc(Cl)ccc4s3)C[C@H]12.[Na+] | 1.2 | 1.8 µg/mL | 0.02 µg/mL | 3.8 µg/mL | 5.42 | 0.7 µg/mL |  |
| C[C@@H](O)[C@H]1C(=O)N2C(C(=O)[O-])=C(Sc3nc4ccccc4s3)[C@H](C)[C@H]12.[Na+] | 0.2 |  |  | 5.6 µg/mL | 5.30 | 2.1 µg/mL | MIC (Staphylococcus aureus [6]): 0.06 µg/mL; MIC (Staphylococcus [14]): 4 µg/mL; MIC (Enterococcus [7]): 4 µg/mL; MIC (Staphylococcus aureus [15]): 1 µg/mL; MIC (Bacteria [4]): 9.7 µg/mL; MIC (Staphylococcus aureus [11]): 0.02 µg/mL; MIC (Staphylococcus [16]): 1.6 µg/mL; MIC (Staphylococcus aureus [17]): 1.7 µg/mL |
| C[C@@H](O)[C@H]1C(=O)N2C(C(=O)[O-])=C(Sc3nc4ccccc4s3)C[C@H]12.[Na+] | 1.7 | 1.9 µg/mL | 0.07 µg/mL | 3.7 µg/mL | 5.09 | 1.7 µg/mL |  |
| C[C@@H](O)[C@H]1C(=O)N2C(C(=O)[O-])=C(Sc3ccc4ccccc4n3)[C@H](C)[C@H]12.[Na+] |  | 6.3 µg/mL | 0.05 µg/mL | 10.1 µg/mL | 4.15 | 4.9 µg/mL |  |
| C[C@@H](O)[C@H]1C(=O)N2C(C(=O)[O-])=C(Sc3nc4ccc([N+](=O)[O-])cc4s3)[C@H](C)[C@H]12.[Na+] | 0.2 | 1.1 µg/mL | 0.05 µg/mL | 22.4 µg/mL | 5.87 | 4.9 µg/mL |  |
| C[C@@H](O)[C@H]1C(=O)N2C(C(=O)[O-])=C(Sc3nc4c(C[n+]5ccn(C)c5)csc4s3)C[C@H]12 |  | 1 µg/mL (≈ 2.16 µM) | 0.02 µg/mL (≈ 0.0432 µM) | 5.5 µg/mL (≈ 11.9 µM) | 6.19 | 2 µg/mL (≈ 4.32 µM) | Susceptibility (Sus scrofa): 0.2 |
| C[C@@H](O)[C@H]1C(=O)N2C(C(=O)[O-])=C(Sc3ncc4ccccc4n3)[C@H](C)[C@H]12.[Na+] | 0.3 | 4 µg/mL | 0.02 µg/mL | 15 µg/mL | 4.52 | 8 µg/mL |  |
| C[C@@H](O)[C@H]1C(=O)N2C(C(=O)[O-])=C(Sc3nc4cc(Cl)ccc4s3)[C@H](C)[C@H]12.[Na+] | 0.2 | 0.8 µg/mL | 0.02 µg/mL | 4.8 µg/mL | 5.21 | 2.7 µg/mL |  |
| C[C@@H](O)[C@H]1C(=O)N2C(C(=O)[O-])=C(Sc3nc4ccccc4o3)[C@H](C)[C@H]12.[Na+] |  | 12.1 µg/mL | 0.23 µg/mL | 27.8 µg/mL | 3.95 | 8.9 µg/mL |  |
| C[C@@H](O)[C@H]1C(=O)N2C(C(=O)[O-])=C(Sc3nc4cc(C(F)(F)F)ccc4s3)[C@H](C)[C@H]12.[Na+] |  | 1.2 µg/mL | 0.08 µg/mL | 9.9 µg/mL | 5.71 | 2.9 µg/mL |  |
| C[C@@H](O)[C@H]1C(=O)N2C(C(=O)[O-])=C(Sc3cc4ccccc4s3)[C@H](C)[C@H]12.[Na+] | 0.4 | 3.9 µg/mL | 0.04 µg/mL | 9.8 µg/mL | 4.38 | 5.7 µg/mL |  |
| C[C@@H](O)[C@H]1C(=O)N2C(C(=O)O)=C(SCCN=CN)C[C@H]12 [IMIPENEM ANHYDROUS] |  |  |  |  | 3.37 |  |  |
| C[C@@H](O)[C@H]1C(=O)N2C(C(=O)[O-])=C(Sc3nc4ccc(Cl)cc4s3)[C@H](C)[C@H]12.[Na+] |  | 2.3 µg/mL | 0.1 µg/mL | 17.6 µg/mL | 5.68 | 4 µg/mL |  |
| C[C@@H](O)[C@H]1C(=O)N2C(C(=O)[O-])=C(Sc3nc4ccc(N)cc4s3)[C@H](C)[C@H]12.[Na+] |  | 9 µg/mL | 0.09 µg/mL | 18.3 µg/mL | 4.39 | 5.9 µg/mL |  |

Source: ChEMBL document CHEMBL1128761, “Benzothiazolylthio carbapenems: potent anti-MRSA agents” (Bioorg Med Chem Lett, 1995)
